From patent publication US20250082702A1, “ANTICANCER COMPOSITION COMPRISING RECOMBINANT ADENOVIRUS EXPRESSING DEGRADATION FACTOR FOR EXTRACELLULAR MATRIX” (priority 2016, published 2025)

Experiments:
BxPC-3 = assay: Pancreatic cancer subcutaneous animal model; format: in vivo, mice; conditions: BxPC-3 subcutaneous; RdB/IL-12/RLX intratumoral, gemcitabine 10 mg/kg
Procedure: (§1) It was intended to verify the anti-tumor effect by the co-administration of RdB/IL-12/RLX and gemcitabine in a pancreatic cancer subcutaneous animal model. The formation of tumors was induced by injecting PANC-1, MIA PaCa-2, or BxPC-3 cells subcutaneously into mice, a change in size of tumors was observed while RdB/IL-12/RLX was administered alone or RdB/IL-12/RLX was administered (administered intratumorally) in combination with gemcitabine (10 mg/kg). Meanwhile, a PBS only administration group was used as a negative control.

MIA PaCa-2 [1] = assay: Pancreatic cancer subcutaneous animal model; format: in vivo, mice; conditions: MIA PaCa-2 subcutaneous; RdB/IL-12/RLX intratumoral, gemcitabine 10 mg/kg
Procedure: as §1

PANC-1 [2] = assay: Pancreatic cancer subcutaneous animal model; format: in vivo, mice; conditions: PANC-1 subcutaneous; RdB/IL-12/RLX intratumoral, gemcitabine 10 mg/kg
Procedure: as §1

AsPC-1 = assay: MTT assay, RdB/IL-12/DCN with gemcitabine; format: cell-based, human; conditions: gemcitabine alone at 100 μg/ml
Procedure: (§2) For this purpose, human pancreatic cancer cell lines PANC-1, MIA PaCa-2, and AsPC-1 were infected with RdB/IL-12/DCN of the present invention at a MOI of 0.5 or 2, and treated together with gemcitabine (0.05, 0.2, 1, 2, 5, 20, or 100 μg/ml), and then the degree of apoptosis was observed through MTT assay.

MIA PaCa-2 [3] = assay: MTT assay, RdB/IL-12/DCN with gemcitabine; format: cell-based, human; conditions: gemcitabine alone at 100 μg/ml
Procedure: as §2

PANC-1 [4] = assay: MTT assay, RdB/IL-12/DCN with gemcitabine; format: cell-based, human; conditions: gemcitabine alone at 100 μg/ml
Procedure: as §2

MIA PaCa-2-Fluc [5] = assay: Histological evaluation of orthotopic pancreatic tumors (H&E, PCNA, TUNEL, E1A); format: in vivo, mouse; conditions: orthotopic MIA PaCa-2-Fluc tumor tissue
Procedure: It was intended to histologically evaluate the anti-tumor effect of the aforementioned experiments. First, the formation of tumors was induced by injecting a human pancreatic cancer cell line MIA PaCa-2-Fluc into the mouse pancreas, and then PBS, gemcitabine, RdB/IL-12/DCN, or gemcitabine+RdB/IL-12/DCN was each administered thereto. Thereafter, hematoxylin-eosin (H & E) staining and PCNA immunohistological staining were performed after collecting the tumor tissues. Further, a TUNEL assay was performed in order to confirm the degree of apoptosis of tumor cells, and immunohistological staining using an antibody against an E1A protein of the adenovirus was performed in order to confirm whether the anti-tumor effect was caused by the replication of the adenovirus present in tumor tissues.

MIA PaCa-2 [6] = assay: Pancreatic cancer xenograft animal model, extracellular matrix and apoptosis; format: in vivo, mice; conditions: RdB/IL-12/RLX 2×10^6 pfu, gemcitabine 1.5 mg/kg
Procedure: In order to construct a pancreatic cancer xenograft animal model, 5×10^5 of MIA PaCa-2 were injected subcutaneously into mice, and then when the size of tumors reached 50 to 100 mm^3, a change in extracellular matrix and an apoptosis effect were observed while 2×10^6 pfu of RdB/IL-12/RLX were administered alone or administered in combination with 1.5 mg/kg of gemcitabine. During the co-administration, RdB/IL-12/RLX was intratumorally administered three times in total at an interval of 2 days, and gemcitabine was intraperitoneally administered once. Thereafter, immunohistological staining and hematoxylin-eosin (H & E) staining were performed, and in order to confirm the degree of apoptosis, a TUNEL assay and cleaved caspase 3 immunostaining were performed. Meanwhile, a PBS only administration group was used as a negative control.

MIA PaCa-2-Fluc [7] = assay: Orthotopic pancreatic cancer animal model, change in size of tumor (IVIS); format: in vivo, mouse; conditions: IVIS imaging; combination: week 1 and 2; RdB/IL-12/DCN 2×10^10 VP i.p. three times, gemcitabine 100 mg/kg twice weekly for 3 weeks
Procedure: In order to construct an orthotopic pancreatic cancer animal model, a human pancreatic cancer cell line MIA PaCa-2-Fluc was selected and used in the experiment. Tumor cells were injected into the mouse pancreas, and two weeks later, the production of tumors was confirmed through an IVIS imaging machine. Thereafter, RdB/IL-12/DCN was intraperitoneally administered three times at 2×10^10 VP/500 μL every two days, and gemcitabine was administered twice weekly at 100 mg/kg for a total of 3 weeks. Meanwhile, a PBS only administration group was used as a negative control. Before RdB/IL-12/DCN was administered, the size and photon values of tumors were confirmed using the IVIS imaging machine, and at week 1, 2, and 3 after the administration, the changes in size of tumors were quantitatively compared.

B16-F10 = assay: Animal model with induced resistance to anticancer agent (taxol), RdB/IL-12/DCN; format: in vivo, C57BL/6 mice; conditions: day 16 (15 days after first taxol administration); taxol 10 mg/kg i.p., RdB/IL-12/DCN 5×10^5 VP, αPD-1 200 μg
Procedure: Under the conditions where the anti-tumor effect caused by an anticancer agent is insignificant due to the resistance to the anticancer agent, and the like, it was intended to verify an in vivo anti-tumor effect by the co-administration of RdB/IL-12/DCN and the immune checkpoint inhibitor (an anti PD-1 antibody; αPD-1). After a B16-F10 mouse melanoma cell line was injected (5×10^5 cells) subcutaneously into the flank of C57BL/6 mice, taxol (day 1, 2, and 3; 10 mg/kg) was injected intraperitoneally into the formed tumor (day 1, about 50 mm^3), and after RdB/IL-12/DCN was administered alone (day 3, 5, 7, and 9; 5×10^5 VP), αPD-1 was administered alone (day 4, 7, 8, and 10; 200 μg), or RdB/IL-12/DCN and αPD-1 were co-administered (under the same conditions, respectively), the growth of tumors was observed. Meanwhile, a PBS only administration group was used as a negative control.

SMILES	change in size of tumors (BxPC-3)	change in size of tumors (MIA PaCa-2 [1])	change in size of tumors (PANC-1 [2])	ability to kill the pancreatic cancer cell lines (MTT assay) (AsPC-1)	ability to kill the pancreatic cancer cell lines (MTT assay) (MIA PaCa-2 [3])	ability to kill the pancreatic cancer cell lines (MTT assay) (PANC-1 [4])	necrosis of cells in tumors (H & E staining) (MIA PaCa-2-Fluc [5])	necrosis or apoptosis of cells in tumors (H & E, TUNEL, cleaved caspase 3) (MIA PaCa-2 [6])	change in size of tumors (MIA PaCa-2-Fluc [7])	size of tumors (B16-F10) [mm^3]
Nc1ccn([C@@H]2O[C@H](CO)[C@@H](O)C2(F)F)c(=O)n1 [gemcitabine]	sharp increase in size of tumors	sharp increase in size of tumors	sharp increase in size of tumors	at most 30%	at most 30%	at most 30%	hardly observed	almost hardly proceeded or was insignificant	sharp increases in size of tumors	–
CC(=O)O[C@H]1C(=O)[C@@]2(C)[C@H]([C@H](OC(=O)c3ccccc3)[C@]3(O)C[C@H](OC(=O)[C@H](O)[C@@H](NC(=O)c4ccccc4)c4ccccc4)C(C)=C1C3(C)C)[C@]1(OC(C)=O)CO[C@@H]1C[C@@H]2O [taxol]	–	–	–	–	–	–	–	–	–	5394.5±288.2
